Source: patent US11975017B2, “Compositions comprising an RNA polymerase inhibitor and cyclodextrin for treating viral infections” (priority 2017, dated 2024)
In brackets after ≈: the same amount, converted by molar mass.

Assays:
physchem = settings: water
[1] = assay type: physicochemical; settings: between pH 1 and 10; FIG. 2
Experimental: The stability of Compound 1 was determined by monitoring the concentration of Compound 1 in solution by liquid chromatography at various storage conditions. […] The solubility of Compound 1 between pH 1 and 10 was determined by quantitatively measuring the concentration of Compound 1 in solution at various pH conditions by liquid chromatography.

For `CCC(CC)COC(=O)[C@H](C)N[P@](=O)(OC[C@H]1O[C@@](C#N)(c2ccc3c(N)ncnn23)[C@H](O)[C@@H]1O)Oc1ccccc1` [Compound 1, (S)-2-ethylbutyl 2-(((S)-(((2R,3S,4R,5R)-5-(4-aminopyrrolo[2,1-f][1,2,4]triazin-7-yl)-5-cyano-3,4-dihydroxytetrahydrofuran-2-yl)methoxy)(phenoxy)phosphoryl)amino)propanoate], the solubility (physchem) was ~30 µg/mL (≈ 49.8 µM) and the “solubility as a function of pH” value [1] was “increases at or below pH 4”.
